Tests used:
Format in all cases: in vivo
Triticum aestivum [1] = assay: Preemergence herbicidal activity (Example 67); parameters: herbicide rating, TRZAW: scale not given here; conditions: pre, 800 g/ha
Description: (§1) Herbicidal evaluation of compounds of the invention is conducted on the following plant species:
(§2) The soil is a prepared horticultural substrate containing 30% peat, 20% volcanic clay, 30% bark residues and 20% polyamide/styromull in a 1:3 mixture with loamy sand. Test solutions are prepared by dissolving the test compound in acetone containing 0.5% of an alkylphenol/ethylene oxide condensate under the trademark, TRITON® X-155, and diluting with water as needed. The test solutions are applied as a spray to the 3-6 week old seedling plants at dose rates corresponding to 800g/ha in a volume equivalent to 400 L/ha. A pneumatic spraying device employing a Teejet nozzle SS 8002E operating at 3 bar is used for a predetermined time. After spraying, the treated plants are placed on greenhouse benches and cared for in a manner commensurate with conventional greenhouse practice. After 10-21 days, the treated plants are evaluated and rated according to the rating system provided below.
(§3) The soil surface is then sprayed with test solutions as described in the postemergence evaluation hereinabove. After spraying, the treated cups are placed on greenhouse benches and cared for in the manner commensurate with conventional greenhouse practice. About 1-3 weeks after treatment the cups are evaluated and rated according to the rating system provided hereinabove.

Setaria viridis [2] = assay: Preemergence herbicidal activity (Example 67); parameters: herbicide rating, SETVI: scale not given here; conditions: pre, 800 g/ha
Description: as §1, §2, §3

Amaranthus retroflexus [3] = assay: Preemergence herbicidal activity (Example 67); conditions: pre, 800 g/ha
Description: as §1, §2, §3

Galium aparine [4] = assay: Preemergence herbicidal activity (Example 67); conditions: pre, 800 g/ha
Description: as §1, §2, §3

Zea mays [5] = assay: Preemergence herbicidal activity (Example 67); conditions: pre, 800 g/ha
Description: as §1, §2, §3

Veronica persica [6] = assay: Preemergence herbicidal activity (Example 67); conditions: pre, 800 g/ha
Description: as §1, §2, §3

Abutilon theophrasti [7] = assay: Preemergence herbicidal activity (Example 67); conditions: pre, 800 g/ha
Description: as §1, §2, §3

Ipomoea hederacea [8] = assay: Preemergence herbicidal activity (Example 67); conditions: pre, 800 g/ha
Description: as §1, §2, §3

Helianthus annuus [9] = assay: Preemergence herbicidal activity (Example 67); conditions: pre, 800 g/ha
Description: as §1, §2, §3

Chenopodium album [10] = assay: Preemergence herbicidal activity (Example 67); conditions: pre, 800 g/ha
Description: as §1, §2, §3

Alopecurus myosuroides [11] = assay: Preemergence herbicidal activity (Example 67); parameters: herbicide rating, ALOMY: scale not given here; conditions: pre, 800 g/ha
Description: as §1, §2, §3

Amaranthus retroflexus [12] = assay: Postemergence herbicidal activity (Example 67); conditions: pos, 800 g/ha
Description: as §1, §2

Galium aparine [13] = assay: Postemergence herbicidal activity (Example 67); conditions: pos, 800 g/ha
Description: as §1, §2

Zea mays [14] = assay: Postemergence herbicidal activity (Example 67); conditions: pos, 800 g/ha
Description: as §1, §2

Veronica persica [15] = assay: Postemergence herbicidal activity (Example 67); conditions: pos, 800 g/ha
Description: as §1, §2

Abutilon theophrasti [16] = assay: Postemergence herbicidal activity (Example 67); conditions: pos, 800 g/ha
Description: as §1, §2

Triticum aestivum [17] = assay: Postemergence herbicidal activity (Example 67); conditions: pos, 800 g/ha
Description: as §1, §2

Setaria viridis [18] = assay: Postemergence herbicidal activity (Example 67); conditions: pos, 800 g/ha
Description: as §1, §2

Ipomoea hederacea [19] = assay: Postemergence herbicidal activity (Example 67); conditions: pos, 800 g/ha
Description: as §1, §2

Hordeum vulgare [20] = assay: Postemergence herbicidal activity (Example 67); conditions: pos, 800 g/ha
Description: as §1, §2

Helianthus annuus [21] = assay: Postemergence herbicidal activity (Example 67); conditions: pos, 800 g/ha
Description: as §1, §2

Alopecurus myosuroides [22] = assay: Postemergence herbicidal activity (Example 67); conditions: pos, 800 g/ha
Description: as §1, §2

Chenopodium album [23] = assay: Postemergence herbicidal activity (Example 67); conditions: pos, 800 g/ha
Description: as §1, §2

Hordeum vulgare [24] = assay: Preemergence herbicidal activity (Example 67); parameters: herbicide rating, HORVW: scale not given here; conditions: pre, 800 g/ha
Description: as §1, §2, §3

[25] = rated about 1-3 weeks after treatment

Compound: CC(NC(=O)c1nsc(-c2ccc(F)cc2)n1)c1cccs1 (racemic) [Example 39]
- herbicide rating, TRZAW (Triticum aestivum [1]; [25]): 0
- herbicide rating, SETVI (Setaria viridis [2]; [25]): 0
- herbicide rating, AMARE (Amaranthus retroflexus [3]; [25]): 4 (30-44%)
- herbicide rating, GALAP (Galium aparine [4]; [25]): 0
- herbicide rating, ZEAMX (Zea mays [5]; [25]): 0
- herbicide rating, VERPE (Veronica persica [6]; [25]): 0
- herbicide rating, ABUTH (Abutilon theophrasti [7]; [25]): 0
- herbicide rating, IPOHE (Ipomoea hederacea [8]; [25]): 0
- herbicide rating, HELAN (Helianthus annuus [9]; [25]): 0
- herbicide rating, CHEAL (Chenopodium album [10]; [25]): 0
- herbicide rating, ALOMY (Alopecurus myosuroides [11]; [25]): 0
- herbicide rating, AMARE (Amaranthus retroflexus [12]; rated after 10-21 days): 3 (16-29%)
- herbicide rating, GALAP (Galium aparine [13]; rated after 10-21 days): 5 (45-64%)
- herbicide rating, ZEAMX (Zea mays [14]; rated after 10-21 days): 6 (65-79%)
- herbicide rating, VERPE (Veronica persica [15]; rated after 10-21 days): 2 (6-15%)
- herbicide rating, ABUTH (Abutilon theophrasti [16]; rated after 10-21 days): 4 (30-44%)
- herbicide rating, TRZAW (Triticum aestivum [17]; rated after 10-21 days): 3 (16-29%)
- herbicide rating, SETVI (Setaria viridis [18]; rated after 10-21 days): 8 (91-99%)
- herbicide rating, IPOHE (Ipomoea hederacea [19]; rated after 10-21 days): 4 (30-44%)
- herbicide rating, HORVW (Hordeum vulgare [20]; rated after 10-21 days): 3 (16-29%)
- herbicide rating, HELAN (Helianthus annuus [21]; rated after 10-21 days): 6 (65-79%)
- herbicide rating, ALOMY (Alopecurus myosuroides [22]; rated after 10-21 days): 3 (16-29%)
- herbicide rating, CHEAL (Chenopodium album [23]; rated after 10-21 days): 4 (30-44%)
- herbicide rating, HORVW (Hordeum vulgare [24]; [25]): 0

Compound: Cc1ccc(-c2nc(C(=O)NC(C)c3cccs3)ns2)cc1 (racemic) [Example 41]
- TRZ AW rating (Triticum aestivum [1]): 0
- SET VI rating (Setaria viridis [2]): 0
- AMA RE rating (Amaranthus retroflexus [3]): 0
- GAL AP rating (Galium aparine [4]): 0
- ZEA MX rating (Zea mays [5]): 4 (30-44%)
- VER PE rating (Veronica persica [6]): 3 (16-29%)
- ABU TH rating (Abutilon theophrasti [7]): 0
- IPO HE rating (Ipomoea hederacea [8]): 0
- HEL AN rating (Helianthus annuus [9]): 0
- CHE AL rating (Chenopodium album [10]): 3 (16-29%)
- ALO MY rating (Alopecurus myosuroides [11]): 0
- AMA RE rating (Amaranthus retroflexus [12]): 3 (16-29%)
- GAL AP rating (Galium aparine [13]): 3 (16-29%)
- ZEA MX rating (Zea mays [14]): 2 (6-15%)
- VER PE rating (Veronica persica [15]): 0
- ABU TH rating (Abutilon theophrasti [16]): 1 (1-5%)
- TRZ AW rating (Triticum aestivum [17]): 2 (6-15%)
- SET VI rating (Setaria viridis [18]): 8 (91-99%)
- IPO HE rating (Ipomoea hederacea [19]): 3 (16-29%)
- HOR VW rating (Hordeum vulgare [20]): 2 (6-15%)
- HEL AN rating (Helianthus annuus [21]): 5 (45-64%)
- ALO MY rating (Alopecurus myosuroides [22]): 2 (6-15%)
- CHE AL rating (Chenopodium album [23]): 5 (45-64%)
- HOR VW rating (Hordeum vulgare [24]): 0

Compound: CC(NC(=O)c1nc(-c2cccc(F)c2)ns1)c1cccs1 (racemic) [Example 43]
- TRZ AW rating (Triticum aestivum [1]): 0
- SET VI rating (Setaria viridis [2]): 0
- AMA RE rating (Amaranthus retroflexus [3]): 0
- GAL AP rating (Galium aparine [4]): 2 (6-15%)
- ZEA MX rating (Zea mays [5]): 0
- VER PE rating (Veronica persica [6]): 2 (6-15%)
- ABU TH rating (Abutilon theophrasti [7]): 0
- IPO HE rating (Ipomoea hederacea [8]): 2 (6-15%)
- HEL AN rating (Helianthus annuus [9]): 0
- CHE AL rating (Chenopodium album [10]): 4 (30-44%)
- ALO MY rating (Alopecurus myosuroides [11]): 0
- AMA RE rating (Amaranthus retroflexus [12]): 0
- GAL AP rating (Galium aparine [13]): 2 (6-15%)
- ZEA MX rating (Zea mays [14]): 0
- VER PE rating (Veronica persica [15]): 2 (6-15%)
- ABU TH rating (Abutilon theophrasti [16]): 1 (1-5%)
- TRZ AW rating (Triticum aestivum [17]): 2 (6-15%)
- SET VI rating (Setaria viridis [18]): 3 (16-29%)
- IPO HE rating (Ipomoea hederacea [19]): 2 (6-15%)
- HOR VW rating (Hordeum vulgare [20]): 2 (6-15%)
- HEL AN rating (Helianthus annuus [21]): 3 (16-29%)
- ALO MY rating (Alopecurus myosuroides [22]): 1 (1-5%)
- CHE AL rating (Chenopodium album [23]): 4 (30-44%)
- HOR VW rating (Hordeum vulgare [24]): 0

Compound: CC(NC(=O)c1nc(-c2cccc(Cl)n2)ns1)c1cccs1 (racemic) [Example 47]
- TRZ AW rating (Triticum aestivum [1]): 0
- SET VI rating (Setaria viridis [2]): 3 (16-29%)
- AMA RE rating (Amaranthus retroflexus [3]): 0
- GAL AP rating (Galium aparine [4]): 1 (1-5%)
- ZEA MX rating (Zea mays [5]): 0
- VER PE rating (Veronica persica [6]): 0
- ABU TH rating (Abutilon theophrasti [7]): 2 (6-15%)
- IPO HE rating (Ipomoea hederacea [8]): 1 (1-5%)
- HEL AN rating (Helianthus annuus [9]): 0
- CHE AL rating (Chenopodium album [10]): 0
- ALO MY rating (Alopecurus myosuroides [11]): 0
- AMA RE rating (Amaranthus retroflexus [12]): 1 (1-5%)
- GAL AP rating (Galium aparine [13]): 4 (30-44%)
- ZEA MX rating (Zea mays [14]): 4 (30-44%)
- VER PE rating (Veronica persica [15]): 3 (16-29%)
- ABU TH rating (Abutilon theophrasti [16]): 4 (30-44%)
- TRZ AW rating (Triticum aestivum [17]): 1 (1-5%)
- SET VI rating (Setaria viridis [18]): 6 (65-79%)
- IPO HE rating (Ipomoea hederacea [19]): 4 (30-44%)
- HOR VW rating (Hordeum vulgare [20]): 3 (16-29%)
- HEL AN rating (Helianthus annuus [21]): 5 (45-64%)
- ALO MY rating (Alopecurus myosuroides [22]): 4 (30-44%)
- CHE AL rating (Chenopodium album [23]): 4 (30-44%)
- HOR VW rating (Hordeum vulgare [24]): 0

— patent EP0726261A1, “Herbidical 1,2,4 thiadiazoles” (American Cyanamid Company, priority 1995, dated 1996)
